Where “and” joins values, the source holds several entries; their conditions need not be identical. Identical values can stand only once.
Tests used:
[1] = target: T1, Aβ(1-40) (Homo sapiens, UniProt P05067); experiment: BASSR (Beta-Amyloid Self-Seeding Radioassay), inhibitors of self-seeded amyloid fibril growth; type: biochemical; details: 30 μM soluble Aβ(1-40) + 125I-labeled Aβ(1-40), pH 7.5, 37° C., 3 to 5 hours, filtration
T1 construct: Soluble Aβ(1-40) peptide (Bachem, Torrance, Calif.); purchased Bachem, Torrance, Calif
T1 sequence (P05067 672-711 limits assumed): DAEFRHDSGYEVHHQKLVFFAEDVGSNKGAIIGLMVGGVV
Experimental: BASSR (Beta-Amyloid Self-Seeding Radioassay)
(§1) An assay for inhibitors of self-seeded amyloid fibril growth
Assay Buffer—50 mM sodium phosphate, pH 7.5, 100 mM NaCl, 0.02% NaN3, 1 M urea (filter and store at 4° C.)
Soluble Aβ(1-40) peptide (Bachem, Torrance, Calif.)—2.2 mg/mL in deionized H2O (stored in aliquots at −20° C., keep on ice when thawed) will self-seed after 1 week storage. Typically, the solution should be stored until no lag phase is seen in the assay.
^125I-labeled Aβ(1-40)—150K-350K cpm/μL in 100% acetonitrile—0.1% trifluoroacetic acid (TFA)—1% β-mercaptoethanol (aliquots stored at −20° C.). ^125I-labeled Aβ(1-40) can be made in accordance with the procedure set forth by H. Levine, III in Neurobiol. Aging, 16:755 (1995), which is hereby incorporated by reference, or this reagent may be purchased from Amersham, Arlington Heights, Ill.
Final assay conditions: 30 μM soluble Aβ(1-40) in deionized water in assay buffer+20-50K cpm ^125I-labeled Aβ(1-40) per assay. Compound to be tested is dissolved in dimethylsulfoxide (DMSO), typically 5-50 mM stock, such that the final concentration of DMSO is <1% v/v in the assay.
Assay: Reaction mixture for 50 assays (on ice) is comprised of 0.1-0.2 μL of […] ^125I-labeled Aβ(1-40)+1 μL of soluble Aβ(1-40)+13.5 μL assay buffer per assay. The following are the amounts of the components of the reaction mixture sufficient for 50 assay wells.
1) Prepare reaction mixture above by mixing components and storing on ice.
2) Pipet 14.5 μL of reaction mixture into each of 50 wells on a polypropylene U-bottom 96-well microtiter plate on ice (Costar 3794).
(§2) 3) Add 1.7 μL of diluted compound to be tested to each well in a column of eight, including solvent control. Serial 3-fold dilutions from 1 mM (100 μM final) in assay buffer−urea=7 dilutions+zero. Each 96-well plate can therefore accommodate 11 samples+1 Congo Red control (0.039-5 μM final in 2-fold steps).
4) Seal the plate with aluminum film (Beckman 538619) and incubate for 10 minutes on ice.
5) Raise the temperature to 37° C. and incubate for 3 to 5 hours (depending on the lot of the peptide).
6) Remove the aluminum film and add 200 μL/well of ice cold assay buffer with urea, collecting the radiolabeled fibrils by vacuum filtration through 0.2 μm pore size GVWP filters in 96-well plates (Millipore MAGV N22, Bedford, Mass.). Determine the radioactivity of the filters using standard methods well-known to those skilled in the art.

[2] = target: T2, beta amyloid peptide Aβ(1-40) (Homo sapiens, UniProt P05067); experiment: BAPA (Beta-Amyloid Peptide Aggregation), pH 6.0; type: biochemical; details: Aβ(1-40) 33 μM, pH 6.0, 2 to 4 hours at room temperature, filtration
T2 construct: 0.5 mg/mL AP (140) peptide in 20% HFIP+0.1 μL/assay radioiodinated ^125I Aβ(1-40)
T2 sequence (P05067 672-711 limits assumed): as above
Experimental: BAPA (Beta-Amyloid Peptide Aggregation)
This assay is used to provide a measure of inhibition by a compound against the aggregation behavior of the beta amyloid peptide.
The purpose of this assay is to provide a higher volume method of assaying the amount of beta amyloid aggregation using an endpoint assay based on filtration. In this assay, hexafluoroisopropanol (HFIP) is used to break down the initial amyloid peptide to a monomer state and use a concentration of 33 μM which is high enough so that aggregation will occur at pH 6.0 in several hours.
β-Amyloid Peptide Aggregation, pH 6.0 (BAPA)
In a 96-well plate (Costar 3794), we add […] 50 mM Phosphate Buffer, pH 6.0, 10 μL 0.5 mg/mL AP (140) peptide in 20% HFIP+0.1 μL/assay radioiodinated ^125I Aβ(1-40) [^125I Aβ(1-40)], and 1 μL of the compound to be tested starting at 50 mM with a concentration of DMSO <1%. Then, we incubate for 2 to 4 hours at room temperature. We stop the reaction with […] of 50 mM phosphate buffer, pH 6.0, and filter it through a 0.2 μm 96-well filter plate (Millipore MAGU N22). We wash the filter plate with 100 μL of the same phosphate buffer. Aggregation was detected on a Microbeta counter after impregnating the filters with Meltilex (1450-441) and is corrected for background.

[3] = target: T1, Aβ(1-40); experiment: BASST (Beta-Amyloid Self-Seeding, ThioflavinT), inhibitors of self-seeded amyloid fibril growth; type: biochemical; details: 30 μM soluble Aβ(1-40), pH 7.5, 37° C., 3 to 5 hours, thioflavin T fluorescence
Experimental: BASST (Beta-Amyloid Self-Seeding, ThioflavinT)
as §1
Assay Buffer—50 mM sodium phosphate, pH 7.5, 100 mM NaCl, 0.02% NaN3, 1 M urea (filter and store at 4° C.).
Soluble Aβ(1-40)—2.2 mg/mL in deionized H2O (store in aliquots at −20° C., keep on ice when thawed) will self-seed after 1 week storage. Typically, the solution should be stored until no lag phase is seen in the assay.
Final assay conditions: 30 μM soluble Aβ(1-40) in deionized water in assay buffer. Compound to be tested is dissolved in DMSO, typically 5-50 mM stock, such that the final concentration of DMSO is <1% v/v in the assay.
Assay: Reaction mixture for 50 assays (on ice) comprised of 1 μL of soluble Aβ(1-40)+13.5 μL assay buffer per assay. The following are the amounts of the components of the reaction mixture that result in each of the 50 assay wells.
1) Prepare the reaction mix above by mixing the components and storing on ice.
2) Pipet […] of reaction mixture into each of 50 wells of a polystyrene U-bottom 96-well microtiter plate (Corning 25881-96) on ice.
as §2, with “[…]” for “μL”
4) Seal the plate with aluminum film and incubate for 10 minutes on ice.
5) Raise the temperature to 37° C. and incubate for 3 to 5 hours (depends on the lot of the peptide).
6) Remove the aluminum film and add 250 μL/well of 5 μM thioflavin T (ThT) [T-3516, Sigma-Aldrich] in 50 mM glycine-NaOH, pH 8.5. Read fluorescence on a plate reader (ex=440 nm/20 nm; em=485 nm/20 nm) within 5 minutes.

[4] = target: T3, Aβ(1-42) (Homo sapiens, UniProt P05067); experiment: BATYM Assay (Aβ(1-42) aggregation, Thioflavin T fluorescence); type: biochemical; details: Aβ 1-42 final concentration 100 μM, PBS pH 7.4, 37° C., 1 day, ThT fluorescence
T3 construct: Required Aβ(1-42)(California Peptide) was dried from its hexafluoroisopropanol (HFIP) stock solution; purchased California Peptide
T3 sequence (P05067 672-713 limits assumed): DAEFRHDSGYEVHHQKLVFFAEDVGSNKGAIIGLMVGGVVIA
Experimental: Required Aβ(1-42)(California Peptide) was dried from its hexafluoroisopropanol (HFIP) stock solution. The Aβ(1-42) was dissolved in dimethylsulfoxide (DMSO) and then mixed with phosphate buffered saline, (PBS) (pH 7.4). The mixed Aβ(1-42) solution was filtered with a 0.2 μm Omnipore membrane syringe filter (Millipore, Bedford, Mass.). The compound to be tested in DMSO (50 times concentrate) was put into each well (0.5 μL/well) of a 96-well plate. The Aβ(1-42) solution was added into each well (24.5 μL/well). The plate was centrifuged at 1,000 g for 5 minutes and incubated at 37° C. for 1 day (Aβ 1-42; final concentration 100 μM).
After incubation Thioflavin T (ThT) (30 μM) solution in glycine-NaOH buffer (pH 8.5, 50 mM) was added into each well (250 μL/well), fluorescence was measured (ex. 440/20 nm; em 485/20 nm) using a fluorescence plate reader. The inhibitory activity was calculated as the reduction of fluorescence with the following formula:
inhibition (%)={(F(Aβ)−F(Aβ+compound)}/{F(Aβ)−F(solvent+compound)}×100
The IC50s were calculated by a curve fitting program using the following equation. The data were obtained from two different experiments in triplicate.
x=concentration of tested compound (M),

| Structure (SMILES) | IC50 [1] | IC50 [2] [µM] | IC50 [3] | IC50 [4] [µM] | melting point [°C] |
| --- | --- | --- | --- | --- | --- |
| CCCCN(CCCC)c1ccc(/C=C2\SC(=S)N(CC(=O)NS(=O)(=O)c3ccccc3)C2=O)cc1 [Example 19, (Z) N-{[5-(4-Dibutylamino-benzytidene)-4-oxo-2-thioxo-thiazolidin-3-yl]-acetyl}-benzenesulfonamide] | 5 µM | 129 | 1.1 µM | 1.77 | 112 to 115 |
| O=C(CN1C(=O)/C(=C/c2ccc(N3CC[C@@H]4CCCC[C@H]4C3)cc2)SC1=S)NS(=O)(=O)c1ccc(F)cc1 [Example 38, (Z) 4-Fluoro-N-(2-{5-[(4aS,8aR)-4-(octahydro-isoquinolin-2-yl)-benzylidene]-4-oxo-2-thioxo-thiazolidin-3-yl}-acetyl)-benzenesulfonamide] | 10 µM and 5 µM | 66 | 0.7 µM and 0.1 µM | 2.54 | 220 to 221 |
| CCCCN(CCCC)c1ccc(/C=C2\SC(=S)N(Cc3cc(=O)c(O)co3)C2=O)cc1 [Example 33, (Z) 5-(4-Dibutylamino-benzylidene)-3-(5-hydroxy-4-oxo-4H-pyran-2-ylmethyl)-2-thioxo-thiazolidin-4-one] | > 100 µM | > 60 | 2 µM | 3.03 | 226 to 227 |
| CCCCCCN(C)c1ccc(/C=C2\SC(=S)N(CC(=O)NS(=O)(=O)C(F)(F)F)C2=O)cc1 [Example 7, (Z) C,C,C-Trifluoro-N-({5-[4-(hexyl-methyl-amino)-benzylidene]4-oxo-2-thioxo-thiazolidin-3-yl}-acetyl)methanesulfonamide] | 1 µM | 70 | 0.4 µM | 1.7 | 94 to 97 |
| O=C(NS(=O)(=O)CCN1C(=O)/C(=C/c2ccc(N3CCC4CCCCC4C3)cc2)SC1=S)c1ccccc1 (centres unmarked) [Example 29, (Z) 2-{5-[4-(Octahydro-isoquinolin-2-yl)-benzylidene]-4-oxo-2-thioxo-thiazolidin-3-yl}-ethanesulfonic acid benzoylamide] | 11 µM | > 100 | 0.6 µM | 3.42 | 213 |

The next molecules have a lower IC50 [2] than those just listed; values first:

| IC50 [1] | IC50 [2] [µM] | IC50 [3] | IC50 [4] [µM] | melting point [°C] | Structure (SMILES) |
| --- | --- | --- | --- | --- | --- |
| 7 µM | 38 | 3 µM | 1.94 | 198 to 200 | CCCCCCN(C)c1ccc(/C=C2\SC(=S)N(Cc3nnn[nH]3)C2=O)cc1 [Example 16, (Z) 5-[4-(Hexyl-methyl-amino)benzylidene]-3-(1H-tetrazol-5-ylmethyl)-2-thioxo-thiazolidin-4-one] |
| > 100 µM | 26 | 1 µM | 1.64 | 170 to 173 | CCCCCCN(C)c1ccc(/C=C2\SC(=S)N(CCNS(=O)(=O)C(F)(F)F)C2=O)cc1 [Example 12, (Z) C,C,C-Trifluoro-N-(2-{5-[4-(hexyl-methyl-amino)benzyldene]-4-oxo-2-thioxo-thiazolidin-3-yl}-ethyl)methanesulfonamide] |
| > 100 µM | 25 | 9 µM | 2.19 | 152 to 155 | CCCCCCN(C)c1ccc(/C=C2\SC(=S)N(CCNS(=O)(=O)c3ccccc3)C2=O)cc1 [Example 11, (Z) N(2-{5-[4-(Hexyl-methyl-amino)benzylidene]-4-oxo-2-thioxo-thiazolidin-3-yl}-ethyl)-benzenesulfonamide] |
| > 100 µM | 3 | 28.5 µM | 2.92 | 134 to 138 | CCCCCN(CCCCC)c1ccc(/C=C2\SC(=S)N(CC(=O)NS(C)(=O)=O)C2=O)cc1 [Example 6, (Z) N-{5-[4-(Dipentylamino-benzylidene)4-oxo-2-thioxo-thiazolidin-3-yl]-acetyl}-methanesulfonamide] |
| > 100 µM | 2.5 | 1 µM | 1.96 | 286 to 288 | CCCCCN(CCCCC)c1ccc(/C=C2\SC(=S)N(CC(=O)NS(=O)(=O)C(F)(F)F)C2=O)cc1 [Example 8, (Z) N-{5-[4-(Dipentylamino-benzylidene)-4-oxo-2-thioxo-thiazolidin-3-yl]-acetyl}-C,C,C-trifluoro-methanesulfonamide] |

Reference: patent US20040197268A1, “Method of imaging amyloid deposits using substituted rhodanine derivatives” (priority 1999, published 2004)
